# Reference: US6573246B1, “Modified ether glyceroglycolipids” (The Liposome Company, Inc., priority 1995, dated 2003)
# System: OVCAR-3 cells (ovarian adenocarcinoma)
# Assay: growth inhibition of OVCAR-3 cells in culture
# Assay type: cell-based, human
# Settings: for IC50: Homo sapiens, OVCAR-3 ovarian cancer cell line, read-out: Gl50 (the source's name); for growth: increase in cell numbers relative to control wells (control = 100): OVCAR-3, 72 h
# Description: Human epithelial cancer cell lines were grown from frozen stocks originally obtained from the ATCC, in media commonly used for growing these cells in culture. For example, A549 cells (non-small cell lung adenocarcinoma) were cultured in Ham's F-12 medium, T84 cells (colon carcinoma) were cultured in a 1:1 mixture of F-12 and DMEM while MCF-7 (breast adenocarcinoma) and A427 (large cell lung carcinoma) cells were cultured in DMEM. The media were supplemented with 10% fetal bovine serum, penicillin (50 U/ml), streptomycin (50 micogram/ml) and fungizone (0.5 microgram/ml). OVCAR-3 cells (ovarian adenocarcinoma) were cultured in RPMI 1640 medium supplemented with 20% FBS and 10 microgram/ml insulin.
# Cells were subcultured into 24-well plates and the cell number was monitored daily. When the cells were in log phase, the media was replaced with one containing the required drug concentration, and the cells were incubated for 72 h. The increase in cell numbers relative to control wells (without any drug) was determined after the incubation. Stock solutions of the drugs ([…]) were prepared in ethanol and stored at −20 deg. C. Etherlipid solutions (30 micromolar) in the appropriate media were prepared fresh on the day of the experiment and serially diluted to give the required concentrations. The final concentration of ethanol in all wells was 0.1% (v/v).
IC50,Structure (SMILES),growth: increase in cell numbers relative to control wells (control = 100) (lipid concentration 5 μM),growth: increase in cell numbers relative to control wells (control = 100) (lipid concentration 10 μM),growth: increase in cell numbers relative to control wells (control = 100) (lipid concentration 15 μM),growth: increase in cell numbers relative to control wells (control = 100) (lipid concentration 20 μM),growth: increase in cell numbers relative to control wells (control = 100) (lipid concentration 30 μM)
> 30 µM,"CCCCCCCCCCCCCCCCOP(=O)([O-])OCC[N+](C)(C)C [D, hexadecylphosphocholine]",93.8 ± 16.5,90.3 ± 11.3,67.4 ± 14.5,62.3 ± 10.7,67.2 ± 12.5
> 30 µM,"CCCCCCCC/C=C\CCCCCCCCCCCCOP(=O)([O-])OCC[N+](C)(C)C [E, erucylphosphocholine]",104.0 ± 12.2,102.3 ± 16.1,98.6 ± 7.8,90.2 ± 6.6,60 ± 10.7
